Data on eight compounds can be found in US20260152509A1, “DELIVERY OF THERAPEUTIC ALKALOID COMPOUNDS” (priority 2021, published 2026).

Series [1] in a line: Pharmacokinetics of 047 and 016 after single oral 047 in mice. The settings on record: analyte after single PO 047 75 mg/kg, male C57BL/6 mice.
Procedure: Total twelve male mice were used in this study. Animals were administered through oral route with solution formulation of 047 at 75 mg/kg dose. The formulation vehicle used was normal saline. Blood samples (approximately 60 μL) were collected under light isoflurane anesthesia from a set of two mice at 0.25, 0.5, 1, 2, 4 and 8 h. The blood samples were collected at each time point in labeled micro centrifuge tube containing K2EDTA as anticoagulant and PMSF (100 mM; 10 μL/mL of blood) as a stabilizer. Plasma samples were separated by centrifugation of whole blood and stored below −70° C. until bioanalysis. Following blood collection, immediately animals were sacrificed followed by abdominal vena-cava was cut open and whole body was perfused from heart using 10 mL of normal saline. Brain samples were collected from set of two mice at 0.25, 0.5, 1, 2, 4 and 8 h. After isolation, brain samples were rinsed three times in ice cold normal saline (for 5-10 seconds/rinse using ˜10-20 mL normal saline in disposable petri dish for each rinse) and dried on blotting paper. Brain samples were homogenized using ice-cold phosphate buffer saline (pH-7.4) and PMSF (100 mM; 10 μL/mL of blood) as a stabilizer. Brain homogenates were stored below −70±10° C. until analysis. Total homogenate volume was three times of the brain weight.
Plasma and brain samples were quantified by fit-for-purpose LC-MS/MS method.
Series [2] is classed as physicochemical. The conditions noted are these: for Conversion (%) / Notes (stability): 0.5 mM. How it is done:
The hydrolysis kinetics was under a certain temperature and measured by LCMS at a certain time interval. The corresponding LCMS chromatograms were recorded and the conversions were calculated. The hydrolysis conditions and the data were summarized in below table. LCMS spectra were obtained using Agilent 1200\G1956A or SHIMADZU LCMS-2020. Standard LCMS conditions were as follows (running time 1.55 minutes):
Acidic condition: Mobile Phase A: 0.0375% TFA in water (v/v). Mobile Phase B: 0.01875% TFA in acetonitrile (v/v); Column: Kinetex EVO C18 30*2.1 mm, 5 μm.
Basic condition: Mobile Phase A: 0.025% NH3·H2O in water (v/v). Mobile Phase B: Acetonitrile; Column: Kinetex EVO C18 2.1×30 mm, 5 μm.
Conversion (%)=peak area 1/(peak area 1+peak area 2)*100%, peak area 1 is the integration of hydrolyzed product, peak area 2 is the integration of starting material.

The target of series [3] is T1, SERT (Homo sapiens, UniProt P31645).
T1 construct: expressed in transfected cells
T1 sequence (P31645 whole entry, species assumed): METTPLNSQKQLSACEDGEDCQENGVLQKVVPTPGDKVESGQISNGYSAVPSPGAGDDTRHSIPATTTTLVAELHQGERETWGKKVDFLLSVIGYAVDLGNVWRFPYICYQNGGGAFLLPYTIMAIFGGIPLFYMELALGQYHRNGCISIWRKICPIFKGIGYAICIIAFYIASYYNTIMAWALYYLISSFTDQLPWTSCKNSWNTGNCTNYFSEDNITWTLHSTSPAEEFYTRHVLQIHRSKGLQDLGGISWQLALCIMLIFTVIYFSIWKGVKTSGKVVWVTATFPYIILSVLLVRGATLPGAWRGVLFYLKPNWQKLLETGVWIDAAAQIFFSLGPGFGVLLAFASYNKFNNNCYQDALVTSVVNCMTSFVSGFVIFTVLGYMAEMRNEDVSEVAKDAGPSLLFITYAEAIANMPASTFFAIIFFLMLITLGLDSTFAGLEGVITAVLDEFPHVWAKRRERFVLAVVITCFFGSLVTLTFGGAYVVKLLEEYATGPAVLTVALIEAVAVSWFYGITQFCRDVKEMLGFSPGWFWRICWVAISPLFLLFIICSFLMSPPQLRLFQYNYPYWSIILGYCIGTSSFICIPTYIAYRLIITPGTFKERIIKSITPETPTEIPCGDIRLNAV
In words: SERT inhibition, Neurotransmitter Transportation Fluorescence assay. The settings on record: 30 minutes at 37° C. It is filed as cell-based. How it is done: SERT inhibition was measured using a Neruotransmitter Transportation Fluorescence assay. […] Compounds were prepared by in assay buffer (20 mM HEPES, 0.1% BSA). The compounds were added to the plated cells and incubated for 30 minutes at 37° C. 25 μL of dye solution (Molecular Devices Neurotransmitter Transporter Uptake Assay Kit) was added per well and incubated for 30 minutes at 37° C. The plates were then read on a plate reader.

Where [4] appears, read: pH = 7.4, 25° C., PBS (20 mM), 0-24 h.
The mark [5] stands for this setting: pH = 2.0, 25° C., 0.01M HCl, 0-24 h.
The mark [6] stands for this setting: pH = 2.0, 37° C., 0.01M HCl, 0-24 h.

pIC50: −log10 of the molar value. Read-outs that look alike come from different tables or passages of the source.

Take `COc1ccc(C23C=CC(=O)CC2N(C)CC3)cc1OC` (racemic) [Compound 016, 3a-(3,4-dimethoxyphenyl)-1-methyl-2,3,7,7a-tetrahydroindol-6-one, reference compound]: in series [1], the “Brain concentrations quantifiable up to” value is reported as “up to 4 h”. Moreover, in series [2] (pH 2.0 in 0.01 M HCl to pH 7.4 in 20 mM PBS, 25° C. to 40° C.), the “further hydrolysis (in words)” value is listed as “did not further hydrolyze”. For the same compound, in series [2] (setting [4]), the “Conversion (%)” value was 0% and the “Notes (stability)” value was “Stable”.
`COc1ccc([C@@]23C=CC4(C[C@@H]2N(C)CC3)SCCS4)cc1OC` (stereo in doubt) [Compound 017, 3′a-(3,4-dimethoxyphenyl)-1′-methyl-spiro[1,3-dithiolane-2,6′-2,3,7,7a-tetrahydroindole]]: in series [2] (setting [5]), the “Conversion (%)” value came to 0% and the “Notes (stability)” value is on record as “Stable”. Further, in series [2] (setting [6]), the “Conversion (%)” value was 0% and the “Notes (stability)” value is reported as “Stable”.
`COc1ccc(C23C=CC4(CC2N(C)CC3)OCCO4)cc1OC` (stereo not drawn) [Compound 015, (3′aR,7′aS)-3′a-(3,4-dimethoxyphenyl)-1′-methyl-spiro[1,3-dioxolane-2,6′-2,3,7,7a-tetrahydroindole]]: the “conversion to mesembrenone (in words)” value in series [2] (pH 2) is “converted to mesembrenone”.
For `COc1ccc([C@@]23C=CC4(C[C@@H]2N(C)CC3)OCCO4)cc1OC` [Compound 015, (3′aR,7′aS)-3′a-(3,4-dimethoxyphenyl)-1′-methyl-spiro[1,3-dioxolane-2,6′-2,3,7,7a-tetrahydroindole]], the “Conversion (%)” value in series [2] (pH = 2.0, 25° C., 0.01M HCl, 1 min) was determined as 19%; in series [2] (pH = 2.0, 25° C., 0.01M HCl, 10 min) it was 46%; in series [2] (pH = 2.0, 25° C., 0.01M HCl, 30 min), 66%; in series [2] (pH = 2.0, 25° C., 0.01M HCl, 120 min) it was 99%.
For orientation: pIC50 means the negative decadic logarithm of the IC50, by convention in mol/L. A high value points to a low IC50. As to `COc1ccc([C@@]23C=CC4(C[C@@H]2N(C)CC3)OCCO4)cc1OC` [Compound 047, (3′aR,7′aS)-3′a-(3,4-dimethoxyphenyl)-1′-methyl-spiro[1,3-dioxolane-2,6′-2,3,7,7a-tetrahydroindole]], in series [1], the “Brain concentrations quantifiable up to” value is reported as “up to 4 h”. Besides, the pIC50 in series [3] was 6.24.
With `COc1ccc([C@]23C=CC4(C[C@H]2N(C)CC3)OCCO4)cc1OC` [Compound 048, (3′aS,7′aR)-3′a-(3,4-dimethoxyphenyl)-1′-methyl-spiro[1,3-dioxolane-2,6′-2,3,7,7a-tetrahydroindole]], the pIC50 in series [3] was 6.03.
The same measure, in the same setting: as for `COc1ccc([C@@]23C=CC4(C[C@@H]2N(C)CC3)SCCS4)cc1OC` [Compound 049, (3′aR,7′aS)-3′a-(3,4-dimethoxyphenyl)-1′-methyl-spiro[1,3-dithiolane-2,6′-2,3,7,7a-tetrahydroindole]], the figure is 6.80.
On the same count and under the same terms, as for `COc1ccc([C@]23C=CC4(C[C@H]2N(C)CC3)SCCS4)cc1OC` [Compound 050, (3′aS,7′aR)-3′a-(3,4-dimethoxyphenyl)-1′-methyl-spiro[1,3-dithiolane-2,6′-2,3,7,7a-tetrahydroindole]], the figure is 6.39.
